The test system of experiment [1] is peptide-sensitized autologous PHA blasts or LCLs. In kind it is cell-based, human. More on the design: key to CTL response: Y: Yes; ND: Not detected. The note with it: predicted epitopes, Table 3.
The subject of experiment [2] is PBMC from healthy HCMV seropositive donors. Kind of experiment: IFN-γ ELISPOT assay. In kind it is cell-based, human. The note with it: peptide 10 μg/ml. In short, it runs like this: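 IFN-γ-secreting T cells were counted as spots, with no-peptide control wells subtracted and means taken from triplicate wells. These spots came from healthy seropositive carriers' PBMC, 2.5×10^5 per well.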

A further experiment concerns HLA B27. Kind of experiment: MHC stabilization assay on T2 cells. The conditions noted are these: HLA B27 on transfected T2 cells; relative increase vs no peptide at 26° C. In kind it is cell-based, human.
For a further experiment, the system named is HLA B8. As to the kind of experiment: MHC stabilization assay on T2 cells. The experiment is classed as cell-based, human. The conditions noted are these: HLA B8 on transfected T2 cells; relative increase vs no peptide at 26° C.
The target of a further experiment is T1, HLA B7 (Homo sapiens, UniProt P01889).
T1 construct: expressed in transfected cells; host or cells: T2 cells
T1 sequence (P01889 25-362): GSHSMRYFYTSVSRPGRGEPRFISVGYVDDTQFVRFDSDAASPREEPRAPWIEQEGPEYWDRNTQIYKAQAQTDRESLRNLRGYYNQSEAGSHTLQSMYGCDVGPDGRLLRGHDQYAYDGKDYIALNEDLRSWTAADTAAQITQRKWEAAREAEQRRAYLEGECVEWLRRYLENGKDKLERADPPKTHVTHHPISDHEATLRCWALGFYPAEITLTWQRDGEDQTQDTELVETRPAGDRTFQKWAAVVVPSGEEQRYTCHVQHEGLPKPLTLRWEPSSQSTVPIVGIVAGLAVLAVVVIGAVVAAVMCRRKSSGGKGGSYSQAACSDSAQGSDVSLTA
T1 sequence (P61769 21-119, further chain): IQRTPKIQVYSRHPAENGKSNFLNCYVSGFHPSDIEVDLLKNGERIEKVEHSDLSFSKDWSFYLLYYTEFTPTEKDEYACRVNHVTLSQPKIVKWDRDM
The experiment is classed as cell-based. The note with it: HLA B7 on transfected T2 cells; relative increase vs no peptide at 26° C.

The source of these data is patent US7524503B2, “Human cytomegalovirus (HCMV) cytotoxic T cell epitopes, polyepitopes compositions comprising same and diagnostic and prophylactic and therapeutic uses therefor” (priority 2001, dated 2009).

Take “ARVYEIKCR (human cytomegalovirus pp28 CTL epitope peptide)”: the “CTL response” value in experiment [1] was “Y”. Further, the “ELISPOT Responses (SFC/10^6 PBMC)” value in experiment [2] (donor fourteen) is recorded as “RK(148) SFC/10^6 PBMC”. Moreover, the “MSE (MHC stabilization efficiency)” value with HLA B27 is reported as “− (− = 0-50%)”.

On to “CRYKYLRKK (human cytomegalovirus pp28 CTL epitope peptide)”, for which the “MSE (MHC stabilization efficiency)” value in the experiment on HLA B27 is reported as “− (− = 0-50%)”.

On to “ELKRKMMYM (human cytomegalovirus IE1 CTL epitope peptide)”, for which the “CTL response” value in experiment [1] is recorded as “Y”. Besides, the “ELISPOT Responses (SFC/10^6 PBMC)” value in experiment [2] (donor eleven) is listed as 300 SFC/10^6 PBMC; in experiment [2] (donor epsilon), “SC(1000), SFC/10^6 PBMC”; in experiment [2] (donor gamma), 100 SFC/10^6 PBMC; in experiment [2] (donor sixteen), 4999 SFC/10^6 PBMC; in experiment [2] (donor three) it was 1992 SFC/10^6 PBMC. The “MSE (MHC stabilization efficiency)” value in the experiment on HLA B8 is “− (− = 0-50%)”.

Turning to “ELRRKMMYM (human cytomegalovirus IE1 CTL epitope peptide)”, in experiment [1], the “CTL response” value is reported as “Y”. For the same sequence, the “ELISPOT Responses (SFC/10^6 PBMC)” value in experiment [2] (donor eleven) came to 430 SFC/10^6 PBMC; in experiment [2] (donor epsilon) it was 1243 SFC/10^6 PBMC; in experiment [2] (donor one) it was 145 SFC/10^6 PBMC; in experiment [2] (donor sixteen) it was 4999 SFC/10^6 PBMC. In the experiment on HLA B8, the “MSE (MHC stabilization efficiency)” value was “++ (++ = 100-199%)”.

As to “GRCQMLDRR (human cytomegalovirus gH CTL epitope peptide)”, in the experiment on HLA B27, the “MSE (MHC stabilization efficiency)” value is listed as “− (− = 0-50%)”.

For the sequence “IMKDKNTPF (human cytomegalovirus IE2 CTL epitope peptide)”, in the experiment with HLA B8, the “MSE (MHC stabilization efficiency)” value is “+++ (+++ = 200-300%)”.

Regarding “KARAKKDEL (human cytomegalovirus IE1 CTL epitope peptide)”, the “ELISPOT Responses (SFC/10^6 PBMC)” value in experiment [2] (donor eleven) was determined as 235 SFC/10^6 PBMC; in experiment [2] (donor four), 231 SFC/10^6 PBMC. Further, the “MSE (MHC stabilization efficiency)” value with HLA B7 and in the experiment on HLA B8 was “−/− (− = 0-50%)” in each case.

LCPKSIPGL: in the experiment with HLA B8, the “MSE (MHC stabilization efficiency)” value was “− (− = 0-50%)”.

As for “PRKKKSKRI (human cytomegalovirus IE2 CTL epitope peptide)”, in the experiment on HLA B8, the “MSE (MHC stabilization efficiency)” value is listed as “− (− = 0-50%)”.

With “QIKVRVDMV (human cytomegalovirus IE1 CTL epitope peptide)”, the “CTL response” value in experiment [1] was “Y”. In addition, the “ELISPOT Responses (SFC/10^6 PBMC)” value in experiment [2] (donor eleven) is given as 2425 SFC/10^6 PBMC; in experiment [2] (donor epsilon), 2848 SFC/10^6 PBMC; in experiment [2] (donor one), 475 SFC/10^6 PBMC; in experiment [2] (donor sixteen), 2251 SFC/10^6 PBMC. Further, in the experiment on HLA B8, the “MSE (MHC stabilization efficiency)” value is on record as “+ (+ = 51-99%)”.

Take QPKRRRHRQ: the “MSE (MHC stabilization efficiency)” value in the experiment with HLA B8 is listed as “− (− = 0-50%)”.

As for “RHRIKEHML (human cytomegalovirus IE1 CTL epitope peptide)”, the “MSE (MHC stabilization efficiency)” value in the experiment on HLA B8 was “− (− = 0-50%)”.

Consider “RRDHSLERL (human cytomegalovirus gH CTL epitope peptide)”, for which the “MSE (MHC stabilization efficiency)” value with HLA B27 is recorded as “− (− = 0-50%)”.

Regarding “RRIEEICMK (human cytomegalovirus IE1 CTL epitope peptide) [reference compound]”, the “MSE (MHC stabilization efficiency)” value in the experiment with HLA B27 is “− (− = 0-50%)”.

For the sequence “RRKMMYMCY (human cytomegalovirus IE1 CTL epitope peptide)”, in the experiment with HLA B27, the “MSE (MHC stabilization efficiency)” value is “+ (+ = 51-99%)”.

Turning to RRRHRQDAL, the results for the “ELISPOT Responses (SFC/10^6 PBMC)” value in experiment [2] (donor eleven) and in experiment [2] (donor sixteen) were 215 SFC/10^6 PBMC and 71 SFC/10^6 PBMC, respectively. For the same sequence, the “MSE (MHC stabilization efficiency)” value was “++ (++ = 100-199%)” in the experiment with HLA B27 and “+ (+ = 51-99%)” in the experiment on HLA B8.

With “SPWAPTAPL (human cytomegalovirus pp150 CTL epitope peptide)”, the “ELISPOT Responses (SFC/10^6 PBMC)” value in experiment [2] (donor four) was “MB(180) SFC/10^6 PBMC”. Also, the “MSE (MHC stabilization efficiency)” value in the experiment with HLA B7 is given as “+++ (+++ = 200-300%)”.

For “TRVKRNVKK (human cytomegalovirus pp50 CTL epitope peptide)”, the “MSE (MHC stabilization efficiency)” value with HLA B27 is on record as “− (− = 0-50%)”.

Regarding VLCPKNMII [reference compound], in the experiment on HLA B8, the “MSE (MHC stabilization efficiency)” value is reported as “− (− = 0-50%)”.

As for “VMKRRIEEI (human cytomegalovirus IE1 CTL epitope peptide)”, in the experiment on HLA B8, the “MSE (MHC stabilization efficiency)” value was “+ (+ = 51-99%)”.

Consider “WPRERAWAL (human cytomegalovirus pp150 CTL epitope peptide)”, for which the “ELISPOT Responses (SFC/10^6 PBMC)” value in experiment [2] (donor sixteen) is on record as “TC(67) SFC/10^6 PBMC”. Besides, the “MSE (MHC stabilization efficiency)” value in the experiment with HLA B7 is listed as “+++ (+++ = 200-300%)”; with HLA B8, “++ (++ = 100-199%)”.

YRIQGKLEY: the “ELISPOT Responses (SFC/10^6 PBMC)” value in experiment [2] (donor sixteen) is on record as “TC(307) SFC/10^6 PBMC”. The “MSE (MHC stabilization efficiency)” value in the experiment on HLA B27 is “− (− = 0-50%)”.
